Test results: publication PMC6123365, “Pharmacokinetics of Nuciferine and N-Nornuciferine, Two Major Alkaloids From Nelumbo nucifera Leaves, in Rat Plasma and the Brain” (Frontiers in Pharmacology, 2018)
Where two headings read alike, the source gives them in different places.

Assays:
[1] = design: method as in earlier work; settings: ref National Center for Biotechnology Information. PubChem Compound Database (CID = 10146; CID = 12313579); cited from earlier work
[2] = tested on: CYP2D6 isoenzyme; design: method as in Ye et al., 2014; settings: competitive manner; ref Ye et al., 2014; cited from earlier work
[3] = Brain pharmacokinetics (unbound, lateral ventricle) by microdialysis after i.v. dose of alkaloid fraction; type: in vivo, rats; settings: rat brain lateral ventricle, mean ± SD, n = 6; for AUC(0-inf) / AUC(0-t) / MRT inf / half-life / Tmax / Cmax: Sprague-Dawley, brain lateral ventricle microdialysate (unbound), iv; for half-life: read-out: t1/2, λz (converted); for Tmax / Cmax: unbound; for Tmax: i.v. alkaloid fraction 20 mg/kg (NF 9, N-NF 4 mg/kg)
Procedure: The microdialysis experiment was conducted as previously described ([Xiao et al., 2016]). Briefly, the rats were anesthetized with an intraperitoneal dose of chloral hydrate 350 mg/kg, and a guide cannula [MAB6 (9).14.IC; MAB, Stockholm, Sweden] was stereotaxically implanted into the lateral ventricle of the brain at the following coordinates relative to bregma: anterior -0.9 mm; lateral +1.5 mm; and lowered 3.1 mm ventral to the dura surface. The guide cannula was secured in place with skull screws and dental cement. The rats were placed in separate cages for at least 3 days to recover. Then, a light surgery was performed as described above.
The probe was perfused with aCSF containing 5 mM β-CD at a flow rate of 2 μL/min. The brain microdialysis system consisted of a syringe microinfusion pump (CMA 400, CMA Microdialysis, Solna, Sweden), equipment for freely moving animals (CMA 120, CMA Microdialysis, Solna, Sweden), a microdialysis probe (MAB6.14.4; 4 mm, MAB, Stockholm, Sweden) and an automatic sample collector (CMA 470, CMA Microdialysis, Solna, Sweden) set at 4°C. The rat was allowed to equilibrate for 1 h prior to the initiation of sample collection. After blank dialysate samples were collected, the animal received an i.v. dose of the alkaloid fraction at 20 mg/kg by injection through the jugular vein. An 8 min delay was incorporated into the sampling procedure to compensate for the dead volume between the active membrane and the sample collection outlet. The dialysates were collected every 20 min time interval for 2 h and then every 30 min time interval for 4 h. The collected samples were kept at 4°C and analyzed within 24 h.
(§1) Pharmacokinetic parameters were estimated by the drug concentration in the plasma or brain versus time profiles using WinNonlin software (Pharsight Corporation, Mountain View, CA, United States, Version 2.1). A non-compartmental model was employed to calculate the following parameters: initial plasma concentration (C0) for the i.v. dose, plasma or brain maximum concentration (Cmax), time of maximum concentration (Tmax), terminal elimination half-life (t1/2, λz), area under the plasma concentration versus time curve from time zero to the last sampling time (AUC0-t) and zero to infinity (AUC0-inf), total body clearance (CL), volume of distribution (Vd, λz), and MRT. Absolute bioavailability (F) was calculated based on the plasma AUC0-inf obtained after oral and i.v. administration at the equivalent dose. The analyte concentration (Cf) in the brain lateral ventricle at each time point was calculated from its probe recovery (Rdial) and determined concentration (Cd) in dialysate by the equation, Cf = Cd/Rdial.

[4] = Plasma pharmacokinetics after single oral dose of lotus leaf alkaloid fraction; type: in vivo, SD rats; settings: for bioavailability / Tmax / AUC(0-inf) / AUC(0-t) / Cmax / MRT inf / half-life: male; for bioavailability: SD, rat, from plasma AUC0-inf after oral (50 mg/kg) and i.v. (10 mg/kg) alkaloid fraction, read-out: F (absolute oral bioavailability); for Tmax / AUC(0-inf) / AUC(0-t) / Cmax / MRT inf / half-life / CL / Vd, λz: rat plasma, mean ± SD, n = 5; for Tmax: oral alkaloid fraction 50 mg/kg (NF 22.5, N-NF 10 mg/kg); for AUC(0-inf) / AUC(0-t) / Cmax / MRT inf / half-life / CL / Vd, λz: oral alkaloid fraction 50 mg/kg; for half-life: read-out: t1/2, λz (converted)
Procedure: (§2) The experimental animals (n = 10), male SD rats (200 ± 20 g), were supplied by the Institute of Laboratory Animal Sciences, Chinese Academy of Medical Sciences and Peking Union Medical College (Beijing, China). The animal experiments were approved by the Animal Ethics Committee at the Institute of Medicinal Plant Development, Chinese Academy of Medical Sciences. The day before the experiment, a light surgery was performed. A polyethylene catheter (0.50-mm ID, 1.00-mm OD, Portex Limited, Hythe, Kent, England) was cannulated into the right jugular vein under anesthesia with an intraperitoneal dose of chloral hydrate at 350 mg/kg. After surgery, the rats were placed individually in cages and allowed to recover for at least 12 h. The rats were fasted overnight with free access to water prior to drug administration.
(§3) Rats were randomly divided into two groups (five per group). Group 1 was treated with the alkaloid fraction dissolved in 0.03% HCl at a single oral dose of 50 mg/kg by gastric gavage. Group 2 was treated with the alkaloid fraction dissolved in normal saline solution containing 0.03% HCl at an i.v. dose of 10 mg/kg by rapid injection via the catheter. After i.v. administration, 0.2 mL of heparinized saline was injected into the catheter for cleaning.
(§4) Blood samples (0.2 mL) were collected from the catheter at multiple intervals (0.08, 0.17, 0.25, 0.50, 1, 2, 4, 6, 8, 12, and 16 h) after dosing. Samples were placed into a heparinized centrifuge tube and centrifuged at 3,000 × g and 4°C for 3 min for plasma separation. An aliquot (0.1 mL) of each separated plasma sample was immediately analyzed or stored at -20°C until assay. After each blood collection, 0.2 mL of normal saline containing 20 units of heparin was injected into the catheter to flush the catheter and prevent coagulation.
(§5) An aliquot of 100 μL of plasma was vortexed with 20 μL of IS (10 μg/mL) and then mixed with 1.5 mL of ethyl acetate for 10 min. Following centrifugation at 8,000 × g for 5 min, the organic phase was completely transferred to a glass tube and concentrated by a gentle nitrogen stream at 40°C. Subsequently, the residue was reconstituted in 150 μL of 80% methanol. Then, the solution was transferred into a small clean tube and centrifuged for 5 min at 16,000 × g. Finally, 10 μL of the supernatant was directly injected into the UPLC system for analysis.
as §1

[5] = rats, cited from earlier work
[6] = Plasma pharmacokinetics after single i.v. dose of lotus leaf alkaloid fraction; type: in vivo, SD rats; settings: male, iv, rat plasma, i.v. alkaloid fraction 10 mg/kg, mean ± SD, n = 5; for Vd: read-out: Vd, λz; for half-life: read-out: t1/2, λz (converted)
Procedure: as §2, §3, §4, §5, §1

[7] = i.v. alkaloid fraction 20 mg/kg

Q: With `COc1cc2c3c(c1OC)-c1ccccc1C[C@H]3N(C)CC2` [NF, nuciferine] as the compound, how does the LogP [1] read?
A: Its LogP is 3.4.

Q: And the “inhibition of CYP2D6 isoenzyme activity” value [2]?
A: Its value is “significantly inhibit”.

Q: And the AUC(0-inf) [3, 7]?
A: Its AUC(0-inf) is 830 ± 130 ng·h/mL.

Q: And the AUC(0-t) [3, 7]?
A: The AUC(0-t) was 780 ± 130 ng·h/mL.

Q: What about the MRT inf [3, 7] of the same compound?
A: Its MRT inf is 2.46 ± 0.35 h.

Q: What about the half-life [3, 7] of the same compound?
A: The half-life was 1.24 ± 0.33 h.

Q: And the Tmax [3]?
A: The Tmax was 0.89 ± 0.17 h.

Q: And the Cmax [3, 7]?
A: Its Cmax is 320 ± 70 ng/mL.

Q: What about the CL/F [3, 7] of the same compound?
A: Its CL/F is 184.7 ± 30 mL/min/kg.

Q: And the “Vd, λz/F” value [3, 7]?
A: Its value is 19.78 ± 5.79 L/kg.

Q: And the bioavailability [4]?
A: Its bioavailability is 58.1%.

Q: And the Tmax [4]?
A: The Tmax was 0.9 ± 0.72 h.

Q: What about the AUC(0-inf) [4] of the same compound?
A: The AUC(0-inf) was 6200 ± 1330 ng·h/mL.

Q: What about the AUC(0-t) [4] of the same compound?
A: The AUC(0-t) was 6130 ± 1350 ng·h/mL.

Q: What about the Cmax [4] of the same compound?
A: Its Cmax is 1710 ± 450 ng/mL.

Q: What about the MRT inf [4] of the same compound?
A: Its MRT inf is 3.35 ± 0.8 h.

Q: And the half-life [4]?
A: Its half-life is 2.48 ± 0.66 h.

Q: What about the CL [4] of the same compound?
A: The CL was 36.5 ± 7.5 mL/min/kg.

Q: And the “Vd, λz” value [4]?
A: The value was 7.87 ± 2.84 L/kg.

Q: What about the oral bioavailability ([5]; oral administration of pure NF, LC-MS/MS, ref Xie et al., 2010) of the same compound?
A: Its oral bioavailability is 69.56%.

Q: What about the oral bioavailability ([5]; pure NF, ref Gu et al., 2014) of the same compound?
A: Its oral bioavailability is 3.9%.

Q: What about the AUC(0-inf) [6] of the same compound?
A: Its AUC(0-inf) is 2130 ± 400 ng·h/mL.

Q: And the AUC(0-t) [6]?
A: The AUC(0-t) was 2090 ± 380 ng·h/mL.

Q: And the C0 [6]?
A: The C0 was 2580 ± 890 ng/mL.

Q: And the MRT inf [6]?
A: Its MRT inf is 2.07 ± 0.74 h.

Q: And the clearance [6]?
A: Its clearance is 35.8 mL/min/kg.

Q: What about the Vd [6] of the same compound?
A: Its Vd is 9.48 ± 3.17 L/kg.

Q: What about the half-life [6] of the same compound?
A: Its half-life is 2.09 ± 0.64 h.

Q: With `COc1cc2c3c(c1OC)-c1ccccc1CC3NCC2` (centres unmarked) [N-NF, N-nornuciferine] as the compound, how does the LogP [1] read?
A: Its LogP is 3.

Q: What about the “inhibition of CYP2D6 isoenzyme activity” value [2] of the same compound?
A: Its value is “significantly inhibit”.

Q: And the AUC(0-inf) [3, 7]?
A: Its AUC(0-inf) is 500 ± 60 ng·h/mL.

Q: What about the AUC(0-t) [3, 7] of the same compound?
A: Its AUC(0-t) is 460 ± 70 ng·h/mL.

Q: And the MRT inf [3, 7]?
A: Its MRT inf is 2.98 ± 0.49 h.

Q: And the half-life [3, 7]?
A: Its half-life is 1.39 ± 0.68 h.

Q: And the Tmax [3]?
A: The Tmax was 1.22 ± 0.27 h.

Q: What about the Cmax [3, 7] of the same compound?
A: The Cmax was 160 ± 30 ng/mL.

Q: And the CL/F [3, 7]?
A: The CL/F was 135 ± 16.7 mL/min/kg.

Q: What about the bioavailability [4] of the same compound?
A: Its bioavailability is 79.9%.

Q: And the Tmax [4]?
A: The Tmax was 1.65 ± 0.78 h.

Q: And the AUC(0-inf) [4]?
A: The AUC(0-inf) was 3400 ± 700 ng·h/mL.

Q: And the AUC(0-t) [4]?
A: Its AUC(0-t) is 3320 ± 670 ng·h/mL.

Q: And the Cmax [4]?
A: Its Cmax is 570 ± 100 ng/mL.

Q: And the MRT inf [4]?
A: The MRT inf was 4.71 ± 0.72 h.

Q: And the half-life [4]?
A: Its half-life is 2.94 ± 0.4 h.

Q: And the CL [4]?
A: The CL was 40.7 ± 9.33 mL/min/kg.

Q: And the “Vd, λz” value [4]?
A: The value was 10.34 ± 2.64 L/kg.

Q: And the AUC(0-inf) [6]?
A: The AUC(0-inf) was 850 ± 280 ng·h/mL.

Q: And the AUC(0-t) [6]?
A: The AUC(0-t) was 740 ± 200 ng·h/mL.

Q: And the C0 [6]?
A: The C0 was 690 ± 560 ng/mL.

Q: What about the MRT inf [6] of the same compound?
A: Its MRT inf is 4.94 ± 1.83 h.

Q: And the clearance [6]?
A: Its clearance is 43.5 mL/min/kg.

Q: And the Vd [6]?
A: Its Vd is 15.2 ± 2.17 L/kg.

Q: And the half-life [6]?
A: The half-life was 3.84 ± 1.27 h.
